Measured values taken from US9695155B2, “Herbicidal substituted pyrimidinyloxy benzene compounds” (E. I. DU PONT DE NEMOURS AND COMPANY, priority 2013, dated 2017).

Legend:
barnyardgrass [1] = assay: Test A preemergence; type: in vivo, Echinochloa crus-galli; details: for Plant response rating, Barnyardgrass: 125 g ai/ha; for Barnyardgrass plant response rating: 500 g ai/ha
Outline: (§1)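 Injury scores run from 0, no effect, to 100, complete control, judged by eye against untreated plants roughly 10 days after treatment. Chemicals carried a surfactant in a non-phytotoxic solvent and went onto loam–sand soil preemergence or onto one- to two-leaf seedlings postemergence.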

giant foxtail = assay: Test A preemergence; type: in vivo, Setaria faberii; details: for Plant response rating, Foxtail, Giant: 125 g ai/ha; for Foxtail, Giant plant response rating: 500 g ai/ha
Outline: as §1

wheat = assay: Test A preemergence; type: in vivo, Triticum aestivum; details: for Wheat plant response rating: 500 g ai/ha
Outline: as §1

corn = assay: Test A preemergence; type: in vivo, Zea mays; details: for Plant response rating, Corn: 125 g ai/ha; for Corn plant response rating: 500 g ai/ha
Outline: as §1

rice = assay: Test B flooded paddy test; type: in vivo, Oryza sativa; details: Flood, 250 g ai/ha; 0 to 100 scale where 0 is no effect and 100 is complete control
Outline: (§2)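 Seedlings are raised to two leaves, flooded to a depth of 3 cm and dosed by adding the compound to the floodwater. Water level is kept constant, and plants are scored visually versus controls 13–15 days later (0 = no effect, 100 = complete control).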

sedge, umbrella = assay: Test B flooded paddy test; type: in vivo, Cyperus difformis; details: Flood, 250 g ai/ha; 0 to 100 scale where 0 is no effect and 100 is complete control
Outline: as §2

Heteranthera limosa = assay: Test B flooded paddy test; type: in vivo; details: Flood, 250 g ai/ha; 0 to 100 scale where 0 is no effect and 100 is complete control
Outline: as §2

barnyardgrass [2] = assay: Test B flooded paddy test; type: in vivo, Echinochloa crus-galli; details: Flood, 250 g ai/ha; 0 to 100 scale where 0 is no effect and 100 is complete control
Outline: as §2

wheat, winter = assay: Test C postemergence; type: in vivo, Triticum aestivum; details: for Plant response rating, Wheat: Postemergence
Outline: (§3)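 Seeds are planted in blended loam soil and sand and treated preemergence, while seedlings in a peat moss/vermiculite medium receive postemergence sprays at 2 to 18 cm height. All plants stay in the greenhouse for 13 to 15 days before visual comparison with controls on a 0–100 scale.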

galium = assay: Test C postemergence; type: in vivo, Galium aparine; details: for Galium plant response rating / Plant response rating (0 to 100), Galium: postemergence; for Galium plant response rating: visual rating; for Galium plant response rating / Plant response rating, Galium: scale 0 to 100 (0 no effect, 100 complete control); for Plant response rating, Galium: Postemergence
Outline: as §3

lambsquarters = assay: Test C postemergence; type: in vivo, Chenopodium album; details: for Plant response rating, Lambsquarters: Postemergence
Outline: as §3

morningglory = assay: Test C postemergence; type: in vivo, Ipomoea coccinea; details: for Plant response rating, Morningglory: Postemergence
Outline: as §3

yellow nutsedge = assay: Test C postemergence; type: in vivo, Cyperus esculentus; details: for Plant response rating, Nutsedge, Yellow: Postemergence
Outline: as §3

ragweed = assay: Test C postemergence; type: in vivo, Ambrosia elatior; details: for Plant response rating, Ragweed: Postemergence
Outline: as §3

velvetleaf = assay: Test C postemergence; type: in vivo, Abutilon theophrasti; details: for Plant response rating, Velvetleaf: Postemergence
Outline: as §3

chickweed = assay: Test C postemergence; type: in vivo, Stellaria media; details: for Chickweed plant response rating / Plant response rating (0 to 100), Chickweed: postemergence; for Chickweed plant response rating: visual rating; for Chickweed plant response rating / Plant response rating, Chickweed: scale 0 to 100 (0 no effect, 100 complete control); for Plant response rating, Chickweed: Postemergence
Outline: as §3

[3] = 0 to 100 scale where 0 is no effect and 100 is complete control
[4] = 0 to 100 scale, 0 no effect, 100 complete control, approx. 10 days
[5] = 125 g ai/ha, 0 to 100 scale where 0 is no effect and 100 is complete control
[6] = 31 g ai/ha, scale 0 to 100 (0 no effect, 100 complete control), 13 to 15 days
[7] = 62 g ai/ha, scale 0 to 100 (0 no effect, 100 complete control)
[8] = 8 g ai/ha, postemergence, 0 is no effect, 100 is complete control
[9] = 16 g ai/ha, postemergence, 0 is no effect, 100 is complete control
[10] = 31 g ai/ha, postemergence, visual rating, scale 0 to 100 (0 no effect, 100 complete control), 13 to 15 days
[11] = 8 g ai/ha, 0 is no effect, 100 is complete control
[12] = 16 g ai/ha, 0 is no effect, 100 is complete control

FC(F)Oc1cnn(-c2ccccc2Oc2ncc(Cl)cn2)c1 [Compound 98]
70: Plant response rating, Velvetleaf (velvetleaf; [7])
50: Plant response rating, Barnyardgrass (barnyardgrass [1]; [3]) | Galium plant response rating (galium; 16 g ai/ha, 13 to 15 days) | Plant response rating, Velvetleaf (velvetleaf; [6]) | Plant response rating, Chickweed (chickweed; 31 g ai/ha, 13 to 15 days)
5: Plant response rating, Wheat (wheat, winter; [7]) | Plant response rating (0 to 100), Nutsedge, Yellow (yellow nutsedge; 125 g ai/ha, postemergence) | Plant response rating, Nutsedge, Yellow (yellow nutsedge; [7])
10: Corn plant response rating (corn; [4]) | Plant response rating (0 to 100), Wheat (wheat, winter; 125 g ai/ha, postemergence) | Plant response rating, Nutsedge, Yellow (yellow nutsedge; [6]) | Plant response rating, Ragweed (ragweed; [6])
15: Plant response rating, Rice (rice)
90: Plant response rating (0 to 100), Velvetleaf (velvetleaf; 125 g ai/ha, postemergence)
65: Plant response rating, Morningglory (morningglory; [7])
35: Plant response rating, Barnyardgrass (barnyardgrass [2]) | Plant response rating, Lambsquarters (lambsquarters; [6])
100: Barnyardgrass plant response rating (barnyardgrass [1]; [4]) | Plant response rating, Foxtail, Giant (giant foxtail; [3]) | Foxtail, Giant plant response rating (giant foxtail; [4])
0: Plant response rating, Wheat (wheat; [5]) | Plant response rating, Corn (corn; [3]) | Plant response rating, Wheat (wheat, winter; [6])
98: Plant response rating (0 to 100), Lambsquarters (lambsquarters; 125 g ai/ha, postemergence)
80: Plant response rating (0 to 100), Galium (galium; 125 g ai/ha) | Plant response rating, Lambsquarters (lambsquarters; [7])
30: Plant response rating, Morningglory (morningglory; [6]) | Plant response rating, Ragweed (ragweed; [7]) | Chickweed plant response rating (chickweed; 16 g ai/ha, 13 to 15 days)
85: Plant response rating, Sedge, Umbrella (sedge, umbrella) | Plant response rating, Ducksalad (Heteranthera limosa) | Plant response rating (0 to 100), Morningglory (morningglory; 125 g ai/ha, postemergence) | Plant response rating (0 to 100), Chickweed (chickweed; 125 g ai/ha)
40: Plant response rating (0 to 100), Ragweed (ragweed; 125 g ai/ha, postemergence)
60: Plant response rating, Galium (galium; 31 g ai/ha, 13 to 15 days)
75: Plant response rating, Galium (galium; 62 g ai/ha) | Plant response rating, Chickweed (chickweed; 62 g ai/ha)

N#Cc1cccc(Oc2ncc(Br)cn2)c1-n1cc(Br)cn1 [Compound 57]
35: Plant response rating, Ragweed (ragweed; [6]) | Plant response rating, Velvetleaf (velvetleaf; [7])
70: Corn plant response rating (corn; [4]) | Plant response rating (0 to 100), Galium (galium; 125 g ai/ha) | Plant response rating (0 to 100), Lambsquarters (lambsquarters; 125 g ai/ha, postemergence) | Plant response rating, Lambsquarters (lambsquarters; [6]) | Plant response rating, Lambsquarters (lambsquarters; [7])
15: Plant response rating (0 to 100), Wheat (wheat, winter; 250 g ai/ha, postemergence) | Plant response rating (0 to 100), Nutsedge, Yellow (yellow nutsedge; 250 g ai/ha, postemergence)
25: Plant response rating, Velvetleaf (velvetleaf; [6])
0: Plant response rating, Wheat (wheat; [5]) | Plant response rating, Corn (corn; [3]) | Plant response rating, Rice (rice) | Plant response rating, Barnyardgrass (barnyardgrass [2]) | Plant response rating, Wheat (wheat, winter; [6])
80: Plant response rating, Foxtail, Giant (giant foxtail; [3]) | Plant response rating, Sedge, Umbrella (sedge, umbrella) | Plant response rating, Morningglory (morningglory; [7]) | Plant response rating (0 to 100), Chickweed (chickweed; 125 g ai/ha) | Plant response rating (0 to 100), Chickweed (chickweed; 250 g ai/ha)
50: Wheat plant response rating (wheat; [4]) | Plant response rating, Galium (galium; 31 g ai/ha, 13 to 15 days) | Plant response rating, Galium (galium; 62 g ai/ha) | Plant response rating, Chickweed (chickweed; 31 g ai/ha, 13 to 15 days) | Plant response rating, Chickweed (chickweed; 62 g ai/ha)
100: Barnyardgrass plant response rating (barnyardgrass [1]; [4]) | Foxtail, Giant plant response rating (giant foxtail; [4])
95: Plant response rating (0 to 100), Galium (galium; 250 g ai/ha) | Plant response rating (0 to 100), Morningglory (morningglory; 250 g ai/ha, postemergence)
65: Plant response rating (0 to 100), Ragweed (ragweed; 250 g ai/ha, postemergence)
45: Plant response rating, Morningglory (morningglory; [6])
85: Plant response rating (0 to 100), Lambsquarters (lambsquarters; 250 g ai/ha, postemergence) | Plant response rating (0 to 100), Morningglory (morningglory; 125 g ai/ha, postemergence)
60: Plant response rating, Barnyardgrass (barnyardgrass [1]; [3]) | Plant response rating, Ducksalad (Heteranthera limosa) | Plant response rating (0 to 100), Velvetleaf (velvetleaf; 250 g ai/ha, postemergence)
55: Plant response rating (0 to 100), Ragweed (ragweed; 125 g ai/ha, postemergence)
10: Plant response rating (0 to 100), Wheat (wheat, winter; 125 g ai/ha, postemergence)
5: Plant response rating, Wheat (wheat, winter; [7]) | Plant response rating (0 to 100), Nutsedge, Yellow (yellow nutsedge; 125 g ai/ha, postemergence) | Plant response rating, Nutsedge, Yellow (yellow nutsedge; [6]) | Plant response rating, Nutsedge, Yellow (yellow nutsedge; [7])
40: Plant response rating, Ragweed (ragweed; [7]) | Plant response rating (0 to 100), Velvetleaf (velvetleaf; 125 g ai/ha, postemergence)

O=Cc1cccc(Oc2ncc(I)cn2)c1-n1cc(Br)cn1 [Compound 172]
10: Plant response rating, Galium (galium; 62 g ai/ha) | Plant response rating, Morningglory (morningglory; [7]) | Velvetleaf plant response rating (velvetleaf; [10]) | Plant response rating, Velvetleaf (velvetleaf; [7])
70: Plant response rating, Chickweed (chickweed; 62 g ai/ha)
50: Chickweed plant response rating (chickweed; 31 g ai/ha, 13 to 15 days)
20: Morningglory plant response rating (morningglory; [10])
0: Plant response rating, Barnyardgrass (barnyardgrass [1]; [3]) | Barnyardgrass plant response rating (barnyardgrass [1]; [3]) | Plant response rating, Foxtail, Giant (giant foxtail; [3]) | Foxtail, Giant plant response rating (giant foxtail; [3]) | Wheat plant response rating (0 to 100 scale) (wheat; 125 g ai/ha) | Wheat plant response rating (wheat; [3]) | Plant response rating, Corn (corn; [3]) | Corn plant response rating (corn; [3]) | Plant response rating, Rice (rice) | Plant response rating, Sedge, Umbrella (sedge, umbrella) | Plant response rating, Ducksalad (Heteranthera limosa) | Plant response rating, Barnyardgrass (barnyardgrass [2]) | Plant response rating (0 to 100), Wheat (wheat, winter; [8]) | Plant response rating (0 to 100), Wheat (wheat, winter; [9]) | Wheat plant response rating (wheat, winter; [10]) | Plant response rating, Wheat (wheat, winter; [7]) | Plant response rating (0 to 100), Galium (galium; [11]) | Plant response rating (0 to 100), Galium (galium; [12]) | Galium plant response rating (galium; 31 g ai/ha, 13 to 15 days) | Plant response rating (0 to 100), Lambsquarters (lambsquarters; [8]) | Plant response rating (0 to 100), Lambsquarters (lambsquarters; [9]) | Lambsquarters plant response rating (lambsquarters; [10]) | Plant response rating, Lambsquarters (lambsquarters; [7]) | Plant response rating (0 to 100), Morningglory (morningglory; [8]) | Plant response rating (0 to 100), Morningglory (morningglory; [9]) | Plant response rating (0 to 100), Nutsedge, Yellow (yellow nutsedge; [8]) | Plant response rating (0 to 100), Nutsedge, Yellow (yellow nutsedge; [9]) | Plant response rating (0 to 100), Ragweed (ragweed; [8]) | Plant response rating (0 to 100), Ragweed (ragweed; [9]) | Ragweed plant response rating (ragweed; [10]) | Plant response rating, Ragweed (ragweed; [7]) | Plant response rating (0 to 100), Chickweed (chickweed; [11]) | Plant response rating (0 to 100), Chickweed (chickweed; [12])
5: Nutsedge, Yellow plant response rating (yellow nutsedge; [10]) | Plant response rating, Nutsedge, Yellow (yellow nutsedge; [7]) | Plant response rating (0 to 100), Velvetleaf (velvetleaf; [8]) | Plant response rating (0 to 100), Velvetleaf (velvetleaf; [9])
